≈ marks a conversion by molar mass, not a printed value. Calls of active or inactive are those of the source. The rule behind the calls is not given here.

Data set [1] deals with Escherichia coli. Put plainly: Inhibition of BacLight Green labeled Escherichia coli adherence to human UEC after 1 hr by flow cytometry analysis. The data set is classed as functional, organism-based.
Data set [2] relates to Escherichia coli. Put plainly: Bactericidal activity against BacLight Green labeled Escherichia coli up to 30 ug/ml. The class given is ADME, organism-based.
In data set [3] the test system is Escherichia coli. Put plainly: Inhibition of BacLight Green labeled Escherichia coli adherence to human UEC at 0.1 ug/ml after 1 hr by flow cytometry analysis. The data set is classed as functional, organism-based.
Data set [4] deals with Escherichia coli. The data set can be described thus: Inhibition of BacLight Green labeled Escherichia coli adherence to human UEC at 10 ug/ml after 1 hr by scanning electron microscopy analysis. The class given is functional, organism-based.
Data set [5] has as its system Escherichia coli. The data set can be described thus: Induction of morphological changes in BacLight Green labeled Escherichia coli assessed as alteration of fimbriae structure and distribution by fusing fimbriae at 10 ug/ml after 1 hr by transmission electron microscopy analysis. The data set is classed as functional, organism-based.
Data set [6] concerns Escherichia coli. Put plainly: Inhibition of BacLight Green labeled Escherichia coli adherence to human UEC at 1 ug/ml after 1 hr by flow cytometry analysis. The class given is functional, organism-based.
Data set [7] concerns Escherichia coli. Put plainly: Inhibition of BacLight Green labeled Escherichia coli adherence to human UEC at 50 ug/ml after 1 hr by scanning electron microscopy analysis. The class given is functional, organism-based.
In data set [8] the test system is Escherichia coli. Put plainly: Induction of morphological changes in BacLight Green labeled Escherichia coli assessed as decrease of number of fimbriae at 50 ug/ml after 1 hr by transmission electron microscopy analysis. The class given is functional, organism-based.

As for `O=C(/C=C/c1ccc(O)c(O)c1)O[C@@H]1C[C@](O)(C(=O)O)C[C@@H](O)[C@H]1O` [CHLOROGENIC ACID], the inhibition result in the data set on Escherichia coli [1] is “inactive”. In the data set with Escherichia coli [2], the Activity result is reported as “Non-toxic”.

As to `O=c1c(O)c(-c2cc(O)c(O)c(O)c2)oc2cc(O)cc(O)c12` [MYRICETIN], in the data set on Escherichia coli [1], 0.88 µg/mL (≈ 2.77 µM) corresponded to half-maximal inhibition (IC50). In addition, the inhibition result in the data set on Escherichia coli [1] is “Dose-dependent effect”. Besides, the inhibition entry with Escherichia coli [3] and in the data set on Escherichia coli [4] was “Active” in each case. For the same compound, the Activity entry in the data set on Escherichia coli [2] is listed as “Non-toxic”. Moreover, in the data set with Escherichia coli [5], the outcome was Active.

Consider `Oc1cc(O)c2c(c1)O[C@@]1(c3ccc(O)c(O)c3)Oc3cc(O)c4c(c3[C@@H]2[C@H]1O)O[C@H](c1ccc(O)c(O)c1)[C@H](O)C4` [PROANTHOCYANIDIN A2], for which the inhibition entry in the data set with Escherichia coli [1] is “inactive”. Moreover, the Activity result with Escherichia coli [2] was “Non-toxic”.

On to `Oc1cc(O)c2c(c1)O[C@H](c1ccc(O)c(O)c1)[C@H](O)[C@H]2c1c(O)cc(O)c2c1O[C@H](c1ccc(O)c(O)c1)[C@@H](O)C2` [PROCYANIDIN B1], for which the inhibition entry in the data set with Escherichia coli [1] is “Dose-dependent effect”. For the same compound, in the data set on Escherichia coli [6], the inhibition result is “Active”. Further, in the data set with Escherichia coli [2], the Activity result is “Non-toxic”.

Take `Oc1cc(O)c2c(c1)O[C@H](c1ccc(O)c(O)c1)[C@H](O)[C@H]2c1c(O)cc(O)c2c1O[C@H](c1ccc(O)c(O)c1)[C@H](O)C2` [PROCYANIDIN B2]: the inhibition result in the data set with Escherichia coli [1] is “Dose-dependent effect”. Also, the inhibition result with Escherichia coli [6] and with Escherichia coli [7] was “Active” throughout. Besides, the Activity result with Escherichia coli [2] is given as “Non-toxic”. Also, in the data set with Escherichia coli [8], the result was Active.

As for `Oc1cc(O)c2c(c1)O[C@H](c1ccc(O)c(O)c1)[C@H](O)[C@H]2c1c(O)cc(O)c2c1O[C@H](c1ccc(O)c(O)c1)[C@H](O)[C@H]2c1c(O)cc(O)c2c1O[C@H](c1ccc(O)c(O)c1)[C@H](O)C2` [PROCYANIDIN C1], the inhibition entry in the data set with Escherichia coli [1] was “Dose-dependent effect”. In addition, the inhibition result in the data set on Escherichia coli [6] was “Active”. Also, the Activity entry in the data set on Escherichia coli [2] is recorded as “Non-toxic”.

Regarding `O=c1c(O)c(-c2ccc(O)c(O)c2)oc2cc(O)cc(O)c12` [QUERCETIN], in the data set with Escherichia coli [1], inhibition was half-maximal at 3.8 µg/mL (≈ 12.6 µM) (IC50) and the inhibition result was “Dose-dependent effect”. Moreover, the inhibition result in the data set with Escherichia coli [3] was “Active”. The Activity result in the data set on Escherichia coli [2] is on record as “Non-toxic”.

The record behind these values is ChEMBL document CHEMBL3286152, “Development of a fluorometric microplate antiadhesion assay using uropathogenic Escherichia coli and human uroepithelial cells” (J Nat Prod, 2014).
